Experimental data reported in patent US20250134898A1, “USE OF MELANOCORTIN-4 RECEPTOR AGONIST IN PREVENTING OR TREATING RARE GENETIC OBESITY DISEASE” (LG CHEM, LTD., priority 2022, published 2025).

Legend:
[1] = tested on: Pomc heterozygous knock-out mice; assay: Anti-obesity efficacy in high fat diet POMC heterozygous deficient mouse model; type: in vivo; conditions: 60 kcal % high-fat diet, 10 mg/kg or 30 mg/kg for about 3 weeks, FIG. 1
Experimental: Pomc heterozygous knock-out mice, in which the Pomc gene encoding proopiomelanocortin (POMC) is not normally expressed, were fed a 60 kcal % high-fat diet (diet with 60 kcal % fat), while administering N-((3S,5S)-1-((3S,4R)-1-(tert-butyl)-4-(4-chlorophenyl)pyrrolidine-3-carbonyl)-5-(morpholine-4-carbonyl)pyrrolidin-3-yl)-N-((1s,4R)-4-methylcyclohexyl)isobutyramide hydrochloride (hereinafter referred to as “test compound”) obtained from the example of preparation at a dose of 10 mg/kg or 30 mg/kg for about 3 weeks to determine the anti-obesity efficacy, and the results are shown in FIG. 1.

[2] = tested on: Pomc homozygous knock-out mice; assay: Anti-obesity efficacy in high fat diet POMC homozygous deficient mouse model; type: in vivo; conditions: 45 kcal % high-fat diet, 10 mg/kg or 30 mg/kg for about 10 days, FIG. 2
Experimental: Pomc homozygous knock-out mice, in which the Pomc gene encoding proopiomelanocortin (POMC) is not expressed, were administered with the test compound at a dose of 10 mg/kg or 30 mg/kg for about 10 days while fed a 45 kcal % high-fat diet (diet with 45 kcal % fat) to determine the anti-obesity efficacy, and the results are shown in FIG. 2.

CC(C)C(=O)N([C@H]1C[C@@H](C(=O)N2CCOCC2)N(C(=O)[C@@H]2CN(C(C)(C)C)C[C@H]2c2ccc(Cl)cc2)C1)[C@H]1CC[C@@H](C)CC1.Cl [test compound, N-((3S,5S)-1-((3S,4R)-1-(tert-butyl)-4-(4-chlorophenyl)pyrrolidine-3-carbonyl)-5-(morpholine-4-carbonyl)pyrrolidin-3-yl)-N-((1s,4R)-4-methylcyclohexyl)isobutyramide hydrochloride]
anti-obesity efficacy [1]: excellent anti-obesity effects
anti-obesity efficacy [2]: excellent anti-obesity effects
